For test [1], the target named is T1, Tyrosine-protein kinase JAK3 (Homo sapiens, UniProt P52333).
T1 sequence (P52333 whole entry): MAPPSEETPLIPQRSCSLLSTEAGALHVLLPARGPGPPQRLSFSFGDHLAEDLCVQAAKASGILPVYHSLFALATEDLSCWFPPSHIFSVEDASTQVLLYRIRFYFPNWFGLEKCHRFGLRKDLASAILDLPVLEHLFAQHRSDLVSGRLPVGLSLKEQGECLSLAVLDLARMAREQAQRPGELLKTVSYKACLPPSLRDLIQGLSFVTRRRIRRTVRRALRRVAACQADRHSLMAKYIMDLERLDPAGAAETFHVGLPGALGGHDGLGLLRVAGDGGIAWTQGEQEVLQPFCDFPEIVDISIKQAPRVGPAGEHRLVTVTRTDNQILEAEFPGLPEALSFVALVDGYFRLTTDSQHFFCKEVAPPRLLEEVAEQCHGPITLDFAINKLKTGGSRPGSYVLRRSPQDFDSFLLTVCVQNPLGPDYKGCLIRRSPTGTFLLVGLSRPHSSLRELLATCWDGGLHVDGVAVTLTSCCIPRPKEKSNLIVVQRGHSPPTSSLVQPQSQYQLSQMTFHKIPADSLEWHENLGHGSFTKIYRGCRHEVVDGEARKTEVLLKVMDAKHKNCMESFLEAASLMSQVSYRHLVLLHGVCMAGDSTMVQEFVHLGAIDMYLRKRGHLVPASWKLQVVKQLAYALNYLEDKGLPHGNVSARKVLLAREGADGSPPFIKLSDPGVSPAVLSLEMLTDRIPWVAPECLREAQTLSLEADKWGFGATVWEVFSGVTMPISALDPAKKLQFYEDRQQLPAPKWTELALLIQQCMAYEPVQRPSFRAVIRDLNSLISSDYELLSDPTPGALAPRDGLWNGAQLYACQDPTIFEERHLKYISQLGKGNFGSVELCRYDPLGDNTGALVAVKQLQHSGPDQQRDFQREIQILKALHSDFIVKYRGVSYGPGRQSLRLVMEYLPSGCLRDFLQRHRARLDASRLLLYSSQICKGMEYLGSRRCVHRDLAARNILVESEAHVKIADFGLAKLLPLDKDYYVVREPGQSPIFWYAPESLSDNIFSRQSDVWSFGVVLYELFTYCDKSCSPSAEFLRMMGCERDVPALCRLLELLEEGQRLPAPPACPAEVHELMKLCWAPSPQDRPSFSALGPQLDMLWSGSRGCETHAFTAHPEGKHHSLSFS
Nature of the test: (§1) Enzyme Assay: The JAK inhibitory activities of compounds of the present invention were measured.The enzymes (JAK1, JAK2, JAK3 and Tyk2) were purchased from Carna Biosciences, Inc.As the substrate for the enzymes (hereinafter referred to as the substrate), LANCE Ultra ULight-JAK-1 (Tyr1023) Peptide (manufactured by PerkinElmer Co., Ltd.) was used.As the antibody for detecting phosphorylation of the substrate, LANCE Ultra Europium-anti-phospho tyrosine antibody (PT66) (manufactured by PerkinElmer Co., Ltd.) was used.The other reagents are purchased from the following suppliers.Adenosine triphosphate (ATP): Sigma-Aldrich4-(2-Hydroxyethyl)-1-piperazineethanesulfonic acid (HEPES): DOJINDO LABORATORIESGlycol ether diamine tetraacetic acid (EGTA): DOJINDO LABORATORIESMagnesium chloride (MgCl2): Wako Pure Chemical Industries, Ltd.Dithiothreitol (DTT): Wako Pure Chemical Industries, Ltd.Tween 20: Sigma-AldrichEthylenediaminetetraacetic acid (EDTA): DOJINDO LABORATORIESThe compounds of the present invention, the enzymes (JAK1, JAK2, JAK3 and Tyk2), the substrate and ATP were used for the assays after diluted with the assay buffer.The composition of the assay buffer is given below.HEPES (pH7.5): 50 mMEGTA: 1 mMMgCl2: 10 mMDTT: 2 mMTween 20: 0.01% (wt/wt)Dilutions were made at such concentrations and dispensed on a well plate, which will be described later, in such volumes that the following final concentrations would be achieved on the well plate. The enzyme concentrations and the ATP concentrations in the respective enzyme (JAK1, JAK2, JAK3 and Tyk2) assays were as follows.JAK1 enzyme assay; the enzyme concentration was 0.5 μg/mL, and the ATP concentration was 70 μM.JAK2 enzyme assay; the enzyme concentration was 0.013 μg/mL, and the ATP concentration was 10 μM.JAK3 enzyme assay; the enzyme concentration was 0.020 μg/mL, and the ATP concentration was 3 μM.Tyk2 enzyme assay; the enzyme concentration was 0.25 μg/mL and the ATP concentration was 20 μM.The concentration of the substrate for the enzymes was 25 nM.The concentration of EDTA was 15 mM.The concentration of PT66 was 2 nM.

Test [2] has as its target Tyrosine-protein kinase JAK1 (Homo sapiens, UniProt P23458). Described as §1.
In test [3] the target is Non-receptor tyrosine-protein kinase TYK2 (Homo sapiens, UniProt P29597). The test is described as §1.
For test [4], the target named is Tyrosine-protein kinase JAK2 (Homo sapiens, UniProt O60674). The test is described as §1, with “plate.” for “plate. The enzyme concentrations and the ATP concentrations in the respective enzyme (JAK1, JAK2, JAK3 and Tyk2) assays were as follows.JAK1 enzyme assay; the enzyme concentration was 0.5 μg/mL, and the ATP concentration was 70 μM.JAK2 enzyme assay; the enzyme concentration was 0.013 μg/mL, and the ATP concentration was 10 μM.JAK3 enzyme assay; the enzyme concentration was 0.020 μg/mL, and the ATP concentration was 3 μM.Tyk2 enzyme assay; the enzyme concentration was 0.25 μg/mL and the ATP concentration was 20 μM.The concentration of the substrate for the enzymes was 25 nM.The concentration of EDTA was 15 mM.The concentration of PT66 was 2 nM.”.

Structures are written as SMILES. pIC50: −log10 of the molar value.

Non-receptor tyrosine-protein kinase TYK2, sequence (P29597 whole entry): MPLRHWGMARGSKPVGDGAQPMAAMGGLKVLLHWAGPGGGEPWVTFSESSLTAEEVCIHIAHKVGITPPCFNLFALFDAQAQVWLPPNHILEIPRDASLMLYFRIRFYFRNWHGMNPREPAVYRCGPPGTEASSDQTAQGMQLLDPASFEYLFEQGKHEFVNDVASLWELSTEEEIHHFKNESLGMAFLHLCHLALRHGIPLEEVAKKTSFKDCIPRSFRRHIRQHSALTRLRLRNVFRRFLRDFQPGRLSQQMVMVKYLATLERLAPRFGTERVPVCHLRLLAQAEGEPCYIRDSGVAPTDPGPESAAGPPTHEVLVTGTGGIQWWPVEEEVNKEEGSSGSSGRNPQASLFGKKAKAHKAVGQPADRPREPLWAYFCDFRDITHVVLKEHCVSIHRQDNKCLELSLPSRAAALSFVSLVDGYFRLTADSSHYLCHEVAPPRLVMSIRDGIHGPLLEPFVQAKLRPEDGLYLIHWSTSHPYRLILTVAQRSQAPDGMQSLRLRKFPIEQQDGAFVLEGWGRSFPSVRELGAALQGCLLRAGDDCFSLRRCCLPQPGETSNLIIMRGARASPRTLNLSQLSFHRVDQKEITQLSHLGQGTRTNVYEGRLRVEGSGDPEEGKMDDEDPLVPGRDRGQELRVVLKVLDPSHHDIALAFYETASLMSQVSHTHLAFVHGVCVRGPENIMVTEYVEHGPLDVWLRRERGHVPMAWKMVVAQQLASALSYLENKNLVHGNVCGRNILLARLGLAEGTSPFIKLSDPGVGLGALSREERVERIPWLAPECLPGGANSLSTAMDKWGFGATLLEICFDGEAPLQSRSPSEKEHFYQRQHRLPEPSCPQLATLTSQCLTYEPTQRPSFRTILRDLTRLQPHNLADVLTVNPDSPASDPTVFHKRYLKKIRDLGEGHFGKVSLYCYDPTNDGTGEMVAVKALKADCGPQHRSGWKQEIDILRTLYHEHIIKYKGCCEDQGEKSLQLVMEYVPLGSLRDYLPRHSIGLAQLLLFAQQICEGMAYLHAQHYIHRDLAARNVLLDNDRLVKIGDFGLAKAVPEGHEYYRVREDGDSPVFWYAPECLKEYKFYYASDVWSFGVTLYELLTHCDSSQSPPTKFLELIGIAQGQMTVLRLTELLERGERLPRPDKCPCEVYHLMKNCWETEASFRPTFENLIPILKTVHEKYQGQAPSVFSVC
Tyrosine-protein kinase JAK2, sequence (O60674 whole entry): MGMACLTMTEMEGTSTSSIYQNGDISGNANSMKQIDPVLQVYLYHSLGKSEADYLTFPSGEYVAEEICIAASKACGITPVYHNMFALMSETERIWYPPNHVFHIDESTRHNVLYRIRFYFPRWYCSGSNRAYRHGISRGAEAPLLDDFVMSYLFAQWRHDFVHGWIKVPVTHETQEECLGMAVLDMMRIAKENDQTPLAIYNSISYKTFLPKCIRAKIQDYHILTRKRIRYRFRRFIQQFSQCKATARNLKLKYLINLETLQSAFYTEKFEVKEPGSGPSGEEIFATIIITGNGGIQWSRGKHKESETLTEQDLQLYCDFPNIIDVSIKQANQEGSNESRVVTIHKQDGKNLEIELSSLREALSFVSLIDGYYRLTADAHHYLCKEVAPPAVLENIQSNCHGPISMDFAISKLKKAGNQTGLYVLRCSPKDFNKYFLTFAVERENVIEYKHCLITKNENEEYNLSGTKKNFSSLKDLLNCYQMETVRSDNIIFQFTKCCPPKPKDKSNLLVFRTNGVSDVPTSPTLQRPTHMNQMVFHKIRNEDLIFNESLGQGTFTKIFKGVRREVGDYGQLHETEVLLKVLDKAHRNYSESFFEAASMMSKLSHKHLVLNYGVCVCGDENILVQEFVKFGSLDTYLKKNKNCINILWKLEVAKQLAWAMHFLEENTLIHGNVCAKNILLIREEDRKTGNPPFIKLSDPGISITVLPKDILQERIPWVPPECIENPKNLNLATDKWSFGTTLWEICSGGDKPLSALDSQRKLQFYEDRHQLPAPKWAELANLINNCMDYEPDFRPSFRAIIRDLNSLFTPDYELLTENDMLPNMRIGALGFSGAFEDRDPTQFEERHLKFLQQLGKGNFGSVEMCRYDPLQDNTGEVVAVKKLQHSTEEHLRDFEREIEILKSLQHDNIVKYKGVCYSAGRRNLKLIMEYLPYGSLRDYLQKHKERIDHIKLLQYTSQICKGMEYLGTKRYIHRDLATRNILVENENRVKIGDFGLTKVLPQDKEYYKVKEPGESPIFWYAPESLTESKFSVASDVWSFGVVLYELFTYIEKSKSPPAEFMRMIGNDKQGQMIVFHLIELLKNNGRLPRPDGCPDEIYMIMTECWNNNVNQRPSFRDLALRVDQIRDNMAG
Tyrosine-protein kinase JAK1, sequence (P23458 whole entry): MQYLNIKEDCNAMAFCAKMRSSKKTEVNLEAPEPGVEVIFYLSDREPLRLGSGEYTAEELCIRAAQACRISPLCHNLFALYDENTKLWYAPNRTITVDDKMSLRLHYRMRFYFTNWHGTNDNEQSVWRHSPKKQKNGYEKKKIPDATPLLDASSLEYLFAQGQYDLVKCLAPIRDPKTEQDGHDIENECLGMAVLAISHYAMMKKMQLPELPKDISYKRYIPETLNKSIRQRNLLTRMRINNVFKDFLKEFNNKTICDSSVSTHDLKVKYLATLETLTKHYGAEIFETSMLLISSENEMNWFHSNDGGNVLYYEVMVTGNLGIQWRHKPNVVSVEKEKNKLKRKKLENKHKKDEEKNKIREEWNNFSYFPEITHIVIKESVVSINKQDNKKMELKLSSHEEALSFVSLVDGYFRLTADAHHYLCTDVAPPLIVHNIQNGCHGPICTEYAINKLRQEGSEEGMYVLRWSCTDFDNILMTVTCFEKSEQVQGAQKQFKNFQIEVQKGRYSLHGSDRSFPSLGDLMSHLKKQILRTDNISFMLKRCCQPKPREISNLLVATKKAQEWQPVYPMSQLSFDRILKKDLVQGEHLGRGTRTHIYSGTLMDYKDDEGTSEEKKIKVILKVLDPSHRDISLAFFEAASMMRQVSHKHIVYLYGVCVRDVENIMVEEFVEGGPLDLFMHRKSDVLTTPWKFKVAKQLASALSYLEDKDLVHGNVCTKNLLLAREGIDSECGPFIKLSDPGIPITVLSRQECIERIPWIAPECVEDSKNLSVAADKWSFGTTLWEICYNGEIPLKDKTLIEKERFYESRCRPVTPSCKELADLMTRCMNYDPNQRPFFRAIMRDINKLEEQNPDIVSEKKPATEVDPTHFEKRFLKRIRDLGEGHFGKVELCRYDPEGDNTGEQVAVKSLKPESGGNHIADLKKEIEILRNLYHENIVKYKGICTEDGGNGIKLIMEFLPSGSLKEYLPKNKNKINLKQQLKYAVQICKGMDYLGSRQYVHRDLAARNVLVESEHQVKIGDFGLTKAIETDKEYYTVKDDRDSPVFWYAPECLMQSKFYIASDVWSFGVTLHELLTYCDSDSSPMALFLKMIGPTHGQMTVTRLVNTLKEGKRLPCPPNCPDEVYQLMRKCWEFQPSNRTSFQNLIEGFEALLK

Regarding `N#CC[C@H](OCC1CCC(N2C=CC(=O)C3C=Nc4[nH]ccc4C32)CC1)C(F)(F)F` (stereo partly drawn), the pIC50 in test [1] is 8.29; in test [2], 9.13; in test [3] it was 7.96; in test [4] it was 8.70.
On the same counts, the results for `O=C1NC(=O)[C@@H](C2CCC(COCCC(F)(F)F)CC2)C2c3cc[nH]c3N=CC12` (stereo partly drawn) are 8.54, 9.46, 7.59 and 8.82.
Regarding `O=C1C=CN(C2CCC(COCC(F)(F)F)CC2)C2c3cc[nH]c3N=CC12` (stereo not drawn), the values for the pIC50 in test [1], in test [2] and in test [3] were 8.57, 9.23 and 8.00, respectively.
Turning to `N#CC[C@@H](NCC1CCC(N2C=CC(=O)C3C=Nc4[nH]ccc4C32)CC1)C(F)(F)F` (stereo partly drawn), the negative logarithm of the IC50 (pIC50) in test [1] is 8.00; in test [2] it was 8.77; in test [3], 7.74; in test [4] it was 8.29.
`Cc1cnn(CC2CCC(N3C=CC(=O)C4C=Nc5[nH]ccc5C43)CC2)c1` (stereo not drawn): the negative-log IC50 (pIC50) in test [1] was 8.15; in test [2], 9.39; in test [3] it was 7.41; in test [4], 8.72.
With `O=C1C=CN(C2CCC(COCCC(F)(F)F)CC2)C2c3cc[nH]c3N=CC12` (stereo not drawn), the pIC50 in test [1] was 8.60; in test [2], 9.17; in test [3] it was 7.72; in test [4] it was 8.80.

The record behind these values is ChEMBL document CHEMBL5727262, “Tricyclic compound and JAK inhibitor” (2019).
